The source of these data is US20160166488A1, “MEDICAMENT” (SYMRISE AG, priority 2013, published 2016).

The subject of the experiment is MMP-1. The experiment can be described thus: Inhibition of MMP-1 synthesis: release of MMP-1 from dermal fibroblasts as an effect of UV radiation (Amersham kit RPN2610). The class given is cell-based. As to conditions: dermal fibroblast culture, test product conc. 0.001 % w/v, incubation 36 h at 37° C., threefold determination; for MMP with UVA: with UVA (method text: UVB radiation 50 mJ/cm^2). The procedure: Inhibition of MMP-1 Synthesis
The capacity of the test substances to alleviate the toxic effect of UVA radiation was investigated. A culture of dermal fibroblasts was used as an in vitro system, and the release of MMP-1 from these fibroblasts as an effect of UV radiation was determined. In order to carry out the experiment, a fibroblast culture with fetal calf serum was prepared and inoculated with the test substances 2 days thereafter. After incubation for 36 h at 37° C. with a CO2 level of 5 vol %, the nutrient medium was replaced with an electrolyte solution, and the fibroblasts were damaged with a specified dose of UVB radiation (50 mJ/cm^2). Determination of MMP was carried out with a kit that is commercially available from the firm Amersham under the name RPN2610. The amount of MMP is given in ng/ml from a test series with threefold determination.

In the case of `C[N+](C)(C)C[C@H](O)CC(=O)O.[Cl-]` [Carnitine*HCl], the “MMP with UVA” value stood at 118 ± 21 rel. % and the “MMP without UVA” value was 24 ± 7 rel. %.

As to `NCCC(=O)N[C@@H](Cc1cnc[nH]1)C(=O)O` [L-carnosine], the “MMP with UVA” value is reported as 101 ± 17 rel. % and the “MMP without UVA” value is 22 ± 5 rel. %.

For the compound `CCCCC(CC)COC(=O)C(C#N)=C(c1ccccc1)c1ccccc1` (centres unmarked) [Octocrinyl, 2-cyano-3,3-phenylcinnamic acid-2-ethylhexyl ester], the “MMP with UVA” value was 100 ± 20 rel. % and the “MMP without UVA” value is recorded as 17 ± 7 rel. %.

On to `CCCCCCOC(=O)c1ccccc1C(=O)c1ccc(N(CC)CC)cc1O` [Uvinul A, 2-(4-diethylamino-2-hydroxybenzoyl)-benzoic acid hexyl ester], for which the “MMP with UVA” value turned out to be 99 ± 12 rel. % and the “MMP without UVA” value came to 17 ± 3 rel. %.
